Laboratory results reported in EP0929299B1, “SUBSTITUTED 1,2,3,4-TETRAHYDRO-2-DIBENZOFURANAMINES AND 2-AMINOCYCLOHEPTA(b)BENZOFURANS” (ELI LILLY AND COMPANY, priority 1996, dated 1998).

Test system: neuronal protein extravasation
Experiment: Neuronal protein extravasation in dura after electrical stimulation of the trigeminal ganglion (Evans Blue)
Assay type: in vivo, Harlan Sprague-Dawley rats or guinea pigs
Method: Harlan Sprague-Dawley rats (225-325 g) or guinea pigs from Charles River Laboratories (225-325 g) were anesthetized with sodium pentobarbital intraperitoneally (65 mg/kg or 45 mg/kg respectively) and placed in a stereotaxic frame (David Kopf Instruments) with the incisor bar set at - 3.5 mm for rats or -4.0 mm for guinea pigs. Following a midline sagital scalp incision, two pairs of bilateral holes were drilled through the skull (6 mm posteriorly, 2.0 and 4.0 mm laterally in rats; 4 mm posteriorly and 3.2 and 5.2 mm laterally in guinea pigs, all coordinates referenced to bregma). Pairs of stainless steel stimulating electrodes (Rhodes Medical Systems, Inc.) were lowered through the holes in both hemispheres to a depth of 9 mm (rats) or 10.5 mm (guinea pigs) from dura.
The femoral vein was exposed and a dose of the test compound was injected intravenously (1 mL/kg). […]
A fluorescence microscope (Zeiss) equipped with a grating monochromator and a spectrophotometer was used to quantify the amount of Evans Blue dye in each sample. An excitation wavelength of approximately 535 nm was utilized and the emission intensity at 600 nm was determined. […] This facilitated the computer-controlled movement of the stage with fluorescence measurements at 25 points (500 µm steps) on each dural sample. The mean and standard deviation of the measurements was determined by the computer. […]

Structure (SMILES): O=C(O)C(=O)O.Oc1ccc2[nH]cc(C3CCNCC3)c2c1 [Compound III, 5-hydroxy-3-(4-piperidinyl)-1H-indole oxalate]
- Inhibition of Protein Extravasation i.v. ID50 (i.v., 10 minutes before stimulation of the trigeminal ganglion, species (rat or guinea pig) not given, ID50 approximated from dose-response curve): 8.9e-09 mmol/kg

Structure (SMILES): CCN(CC)C1CCc2cccc(Cl)c2C1.Cl (centres unmarked) [Compound IV, 8-chloro-2-diethylamino-1,2,3,4-tetrahydronaphthalene hydrochloride]
- Inhibition of Protein Extravasation i.v. ID50 (mMol/kg) (iv): 1.2x10-^7 mMol/kg
